Data published in patent US20250325491A1, “POLYVALENT MOLECULE BASED LIPID NANOPARTICLES FOR NUCLEIC ACID DELIVERY” (Bio-TRIP B.V., priority 2022, published 2025).
Like-named read-outs stand apart in the source and are kept apart here.

Legend:
[1] = Solubility of the polyvalent molecules in ethanol, iso-propanol and tri-caprylin
Method: The solubility can be checked by stirring about 20 mg of the polyvalent molecule in 1 gram of tricaprylin, ethanol or iso-propanol, and assessing whether all material spontaneously dissolves to create a clear/transparent solution (with a concentration of about 2 w/w %). The test can be done at about 20 degrees centigrade (room temperature) or at about 37 degrees centigrade.
Spontaneous dissolution upon stirring at room temperature giving a clear solution is a mark for solubility.

[2] = Dynamic light scattering (DLS) of nanoparticles; format: physicochemical; settings: siRNA-aNPs containing the polyvalent material (Table S3); SD over individual repeats
Method: The hydrodynamic diameter of the formulated particles was determined by a number-weighted mean diameter provided by dynamic light scattering (DLS) using a Zetasizer Nano ZS in combination with a Malvern Zetasizer NanoSampler (Malvern Instruments, Worcestshire, UK). The size dispersity was measured as the poly dispersity index (PDI). For the DLS measurements, 100 μl of the formulated nanoparticle was diluted into 700 μl of PBS (137 mM NaCl, 2.7 mM KCl, 10 mM Na2HPO4 and 1.8 mM KH2PO4) and equilibrated at room temperature before the analysis. Each sample was measured 5 times, 10 runs of each 10 seconds, at wavelength 633 nm, without fixing the attenuator and measurement position.

[3] = Cryo-TEM of nanoparticles; format: physicochemical
Method: Size and shape of the nanoparticles was also assessed by cryo-transmission electron microscopy (cryo-TEM). The surface of 200-mesh lacey carbon supported copper grids (Electron Microscopy Sciences) was plasma charged for 40 seconds using a carbon coater (Cressington 208). Subsequently, 3 μl of nanoparticle sample (˜1 mg protein/ml) was pipetted on a grid and vitrified into a thin film by plunge vitrification in liquid ethane. This step was performed by using an automated robot (FEI Vitrobot Mark IV). Cryo-TEM imaging was acquired on the cryo-transmission electron microscope TITAN (Thermo Fisher), equipped with a field emission gun (FEG), a post-column Gatan imaging filter (model 2002) and a post-GIF 2 k×2 k Gatan CCD camera (model 794). The imaging was performed at 300 kV acceleration voltage in bright-field TEM mode with zero-loss energy filtering at 24,000× magnification (dose rate of 11.8 e−/Å2·s), and 1s acquisition time. Pictures and results are reported in Table S6, FIG. 7, FIG. 8, FIG. 9 (A), FIG. 15.

RAW 264.7 cell line = experiment: MTS cytotoxicity assay; format: cell-based; settings: RAW 264.7 cell line exposed to siRNA-aNPs with increasing amounts of the polyvalent molecule (FIG. 10)
Method: MTS assays were carried out on multiple apolipoprotein nanoparticles (aNPs) of the invention. These assays were executed in line with protocols that are known in the art.

[4] = Stability of nanoparticle formulations (phase separation on dialysis or storage); format: physicochemical; parameters: key to phase separation of siRNA-aNPs (Table S4): *: Indicates phase separation after two days of storage in the refrigerator at 4° C; key to phase separation of siRNA-aNPs (footnote mark, Table S5): *: Indicates phase separation after two days storage in the fridge at 4° C.; **: Indicates phase separation after overnight dialysis; settings: siRNA-aNPs containing the polyvalent material; for phase separation of siRNA-aNPs (footnote mark, Table S5): overnight dialysis or storage at 4° C; for phase separation of siRNA-aNPs (Table S4): storage in the refrigerator at 4° C
[5] = 20 mg material per gram of solvent, spontaneous dissolution upon stirring giving a clear solution

SMILES | solubility in ethanol, iso-propanol and tri-caprylin [1, 5] | DLS Hydrodynamic diameter (number mean) [2] [nm] | DLS PDI [2] | other results
CCCCCCCCOC(=O)CCN(CCC(=O)OCCCCCCCC)CCN(CCC(=O)OCCCCCCCC)CCN(CCC(=O)OCCCCCCCC)CCC(=O)OCCCCCCCC [Example A10, Bis(2-aminoethyl)amine-ACR-C8-5] |  |  |  | solubility in ethanol, iso-propanol and tri-caprylin [1]: soluble in all three solvents at room temperature
CCCCCCCCC=CCCCCCCCC(=O)NCCCCC(N)C(=O)NCCCN(CCCCN(CCCNC(=O)C(N)CCCCNC(=O)CCCCCCCC=CCCCCCCCC)CCCNC(=O)C(N)CCCCNC(=O)CCCCCCCC=CCCCCCCCC)CCCNC(=O)C(N)CCCCNC(=O)CCCCCCCC=CCCCCCCCC (centres unmarked) [Example J10, G1-Lysine-N^6-Oleate-4] | soluble in all three solvents at room temperature |  |  | 
CCCCCCCCCCCCCCOC(=O)CCN(CCCN(CCCCN(CCCN(CCC(=O)OCCCCCCCCCCCCCC)CCC(=O)OCCCCCCCCCCCCCC)CCCN(CCC(=O)OCCCCCCCCCCCCCC)CCC(=O)OCCCCCCCCCCCCCC)CCCN(CCC(=O)OCCCCCCCCCCCCCC)CCC(=O)OCCCCCCCCCCCCCC)CCC(=O)OCCCCCCCCCCCCCC [Example A3, G1-ACR-nC14-8] |  | 55 ± 0.7 | 0.14 ± 0.01 | 
CC(C)CCCCCCCOC(=O)CCN(CCCN(CCCCN(CCCN(CCC(=O)OCCCCCCCC(C)C)CCC(=O)OCCCCCCCC(C)C)CCCN(CCC(=O)OCCCCCCCC(C)C)CCC(=O)OCCCCCCCC(C)C)CCCN(CCC(=O)OCCCCCCCC(C)C)CCC(=O)OCCCCCCCC(C)C)CCC(=O)OCCCCCCCC(C)C [Example A6, G1-ACR-isoC10-8] |  | 48 ± 1 | 0.14 ± 0.02 | diameter of siRNA-aNPs visible in cryo-TEM and immuno-gold staining TEM images ([3]; siRNA-aNPs containing A6 (FIG. 9)): about 50 nm; Cryo-TEM Diameter ([3]; siRNA-aNPs containing the polyvalent material, SD over n individual particles): 53 ± 11 nm; Cryo-TEM PDI ([3]; siRNA-aNPs containing the polyvalent material, n individual particles): 0.02; cytotoxicity (MTS assay) (RAW 264.7 cell line): do not exercise cytotoxicity
CCCCCCCCC=CCCCCCCCC(=O)NC(CCCNC(=N)N)C(=O)NCCCN(CCCCN(CCCNC(=O)C(CCCNC(=N)N)NC(=O)CCCCCCCC=CCCCCCCCC)CCCNC(=O)C(CCCNC(=N)N)NC(=O)CCCCCCCC=CCCCCCCCC)CCCNC(=O)C(CCCNC(=N)N)NC(=O)CCCCCCCC=CCCCCCCCC (centres unmarked) [Example J11, G1-Arginine-Oleate-4] | soluble in all three solvents at room temperature |  |  | 
CCCCCCCCCCC(O)CN(CCCN(CCCCN(CCCN(CC(O)CCCCCCCCCC)CC(O)CCCCCCCCCC)CCCN(CC(O)CCCCCCCCCC)CC(O)CCCCCCCCCC)CCCN(CC(O)CCCCCCCCCC)CC(O)CCCCCCCCCC)CC(O)CCCCCCCCCC (mixture of isomers) [Example G2, G1-EPX-nC10-8] | soluble in all three solvents at room temperature | 55 ± 4 | 0.10 ± 0.01 | 
CCCCCCCCC(O)CN(CCN(CC(O)CCCCCCCC)CC(O)CCCCCCCC)CCN(CC(O)CCCCCCCC)CC(O)CCCCCCCC (mixture of isomers) [Example G8, Bis(2-amino-ethyl)amine-EPX-C8-5] | soluble in all three solvents at room temperature | 84 ± 45 | 0.2 ± 0.05 | 
CCCCCCCCCCCCCCOC(=O)CCN(CCCN(CCCCN(CCCN(CCC(=O)OCCCCCCCCCCCCCC)C(C)=O)CCCN(CCC(=O)OCCCCCCCCCCCCCC)C(C)=O)CCCN(CCC(=O)OCCCCCCCCCCCCCC)C(C)=O)C(C)=O [Example B2, G1-ACR-nC14-4/Ac-4] | soluble in all three solvents at room temperature | 67 | 0.09 | phase separation of siRNA-aNPs (footnote mark, Table S5) [4]: B2 *; phase separation of siRNA-aNPs (Table S4) [4]: B2 *
CCCCCCCCCCCCCCOC(=O)CCN(C)CCCN(CCCCN(CCCN(C)CCC(=O)OCCCCCCCCCCCCCC)CCCN(C)CCC(=O)OCCCCCCCCCCCCCC)CCCN(C)CCC(=O)OCCCCCCCCCCCCCC [Example H1, G1-ACR-nC14-4/CH3-4] |  | 66 ± 7 | 0.45 ± 0.43 | phase separation of siRNA-aNPs (footnote mark, Table S5) [4]: H1 *; phase separation of siRNA-aNPs (Table S4) [4]: H1 *
CCCCCCCCC(O)CN(CCCN(CC(O)CCCCCCCC)CC(O)CCCCCCCC)CCCN(CC(O)CCCCCCCC)CC(O)CCCCCCCC (mixture of isomers) [Example G7, Bis(3-aminopropyl)amine-EPX-C8-5] | soluble in all three solvents at room temperature | 54 ± 1 | 0.2 ± 0.06 | 
CCCCCCCCOC(=O)CCN(CCCN(CCC(=O)OCCCCCCCC)CCC(=O)OCCCCCCCC)CCCN(CCC(=O)OCCCCCCCC)CCC(=O)OCCCCCCCC [Example A9, Bis(3-Aminopropyl)Amine-ACR-C8-5] | soluble in all three solvents at room temperature |  |  | 
CCCCCCCCOC(=O)CCN(CCCN(C)CCCN(CCC(=O)OCCCCCCCC)CCC(=O)OCCCCCCCC)CCC(=O)OCCCCCCCC [Example A11, Bis-(3-aminopropyl)methylamine-ACR-C8-4] | soluble in all three solvents at room temperature | 136 ± 45 | 0.14 ± 0.04 | 
CCCCCCCCC(O)CN(CCCN(C)CCCN(CC(O)CCCCCCCC)CC(O)CCCCCCCC)CC(O)CCCCCCCC (mixture of isomers) [Example G9, Bis(3-aminopropyl)methylamine-EPX-C8-4] |  | 73 ± 10 | 0.18 ± 0.08 | 
